Results taken from US20240124556A1, “KERATIN BD-3, PREPARATION METHOD THEREFOR AND PHARMACEUTICAL COMPOSITION AND USE THEREOF” (INSTITUTE OF MATERIA MEDICA, CHINESE ACADEMY OF MEDICAL …, priority 2019, published 2024).
Structures can show the parent of a compound that is named as a salt. Marks after values point to notes of the source that are not given here.

Key:
[1] = tested on: cough induced by ammonia water in mice; assay: Antitussive test, cough induced by ammonia water in mice; type: in vivo, ICR mice
Procedure: • Animals: male ICR mice; • Drugs and reagents: dextromethorphan hydrobromide, ammonia water, 0.2% CMC-Na, protein BD-3; • Apparatus: Compressed nebulizer (403T type), balance (XS105DU type). • Experiment grouping: • Solvent control group; • Dextromethorphan 15 mg/kg group; • Protein BD-3, 20 mg/kg group, 50 mg/kg group.
Dextromethorphan and different doses of protein BD-3 (administration volume 10 ml/kg) were given orally in groups, and the solvent control group was given the same volume of distilled water. One hour later, mice were put into a sealed box and atomized 10% ammonia water for 10 seconds, and then observed and recorded the incubation period of cough in mice and the number of coughs in 2 minutes.
Record the time point of oral administration, the time point of atomization experiment, the incubation period of mice cough and the number of coughs within 2 minutes, respectively. The incubation period of cough refers to the number of seconds from the start of the atomization of ammonia to the occurrence of cough. The performance of coughing in mice is based on contraction of their abdominal muscles (breast contraction) and opening their mouths at the same time. Calculate the mean and standard error of each group of data, and use TTEST to compare the model group with other groups, and P<0.05 is considered as a significant difference.

[2] = tested on: PTZ-induced epilepsy in mice; assay: Pentylenetetrazole (PTZ)-induced epilepsy in mice; type: in vivo, ICR mice; settings: Retigabine 60 mg/kg
Procedure: • Animals: male ICR mice; • Medicines: Pentylenetetrazol (PTZ), Retigabine, Protein BD-3. • Experiment grouping: • Model group; • Retigabine 60 mg/kg group; • Protein BD-3, 50 mg/kg group, 200 mg/kg group;
The drug was administered once in the afternoon the day before modeling, On the day of modeling, PTZ-65 mg/kg (modeling agent) was injected intraperitoneal 1 hour after the test drug was administered intragastrically, and the positive drug can be administered once half an hour before modeling. Continue to observe for 15 minutes after injection of PTZ.
Observation index: (1)Seizure situation: the time of seizures from Grade III to Grade VI; (2)Death situation
(§1) Seizure grade: Refer to Racine grading standard: Grade 0: No response; Grade I: manifested as twitching of facial muscles or the corners of the mouth; Grade II: can nod; Grade III: twitching of one limb; Grade IV: rigidity or body twitching; Grade V: generalized epilepsy (generalized tonic seizures).
Count the cases of seizures and deaths in each group of mice in the experiment; Grade III and IV incubation period. The incubation period of mice that have not attacked to Grade IV is recorded as the maximum of 900 seconds. Chi-square test was used for statistics of the number of cases. Calculate the mean and standard error of the incubation period. Use TTEST to compare the model group with other groups, and P<0.05 is considered as a significant difference.

[3] = tested on: PLO-induced epilepsy in mice; assay: Pilocarpine (PLO) induced convulsive epilepsy in mice; type: in vivo, ICR mice; settings: Diazepam 2 mg/kg
Procedure: • Animals: male ICR mice; • Drugs: Pilocarpine HCl (PLO, pilocarpine, pilocarpine hydrochloride), Diazepam (diazepam tablets), protein BD-3. • Experiment grouping: • Model group: • Diazepam 2 mg/kg group; • Protein BD-3, 50 mg/kg group, 200 mg/kg group.
The drug was administered once in the afternoon the day before modeling, PLO-225 mg/kg (modeling agent) was injected intraperitoneally 1 hour after the test drug was administered intragastrically on the day of modeling. And positive drug can be administered once 20 minutes before modeling. Observe for 30 minutes after PLO injection.
Observation indicators: (1)Seizure situation: the time of seizures from Grade II to Grade IV; (2)the time to death.
as §1
Count the number of Grade IV seizures and deaths in each group of mice in the experiment; Grade II, III and IV incubation period. […] Chi-square test was used for statistics of the number of cases. The mean value and standard error of the incubation period were calculated, and TTEST was used to compare the model group with other groups. P<0.05 was considered as a significant difference.

[4] = tested on: acetic acid writhing in ICR mice; assay: Acetic acid writhing in ICR mice; type: in vivo
Procedure: • Animals: male ICR mice; • Drugs and reagents: aspirin, physiological saline, glacial acetic acid, protein BD-3. • Experiment grouping: • Model group; • Aspirin 300 mg/kg group; • Protein BD-3, 50 mg/kg group, 200 mg/kg group.
One day after the experimental animals adapt to the environment, Aspirin 300 mg/kg, protein BD-3 50 mg/kg, 200 mg/kg were given orally one hour in advance, and the administration volume was 10 ml/kg; Then, 0.6% acetic acid solution was injected intraperitoneally, and the incubation period (seconds) and frequency of writhing in the animal was observed within 15 minutes.
Calculate the mean and standard error of the data in each group. Compared with the model group by TTEST, P<0.05 was considered as statistically different.

[5] = tested on: yeast-induced fever model in SD rats; assay: Yeast-induced fever model of SD rats; type: in vivo
Procedure: (§2) • Animals: 230-260 grams of male SD rats; • Medicines: yeast (OXOID LP0021), aspirin (SIGMA A2093), protein BD-3; • Instruments: electronic balance (SARTORIUS BP121S type), electronic clinical thermometer (CITIZEN CT-513W type). • Experiment grouping: • Normal control group; • Model group: yeast fever model; • Positive control group: Aspirin 300 mg/kg group; • Protein BD-3, 10 mg/kg group, 50 mg/kg group. • Method:
(§3) Preparation of experimental animals: After the experimental animals adapt to the experimental environment (temperature 22° C.±2° C., relative humidity 50%±2%) for 1 day. Pre-adaptation to measure rectal temperature at 8:00 and 15:00, rats were fasted and water was taken freely 12 h before experiment, and let the animal to empty its feces before measuring the rectal temperature. Apply petroleum jelly to the electronic thermometer probe before each temperature measurement. Insert the rat rectum 2 cm (can be marked at 2 cm to ensure that the depth of each insertion is consistent), and record the body temperature after the reading is stable.
(§4) Subcutaneous injection of dry yeast to replicate rat fever model: The body temperature of the rats was measured before modeling. Qualified rats with a body temperature of 36.2-37.3° C. were selected and randomly divided into groups with 8 rats in each group. After oral administration of aspirin and different doses of protein BD-3, 20% yeast suspension (10 ml/kg) was injected subcutaneously immediately, and the normal control group was injected intraperitoneally with an equal volume of normal saline. The body temperatures of the rats were monitored after 2 hours for a total of 8 hours.
(§5) According to the body temperature measured at each time point on the day of the experiment, calculate the mean, standard deviation and standard error of the body temperature of each group of rats. The data of each group was compared with TTEST, and P<0.05 was considered as a significant difference.

[6] = tested on: lipopolysaccharide (LPS) induced fever model in SD rats; assay: Lipopolysaccharide (LPS) induced fever in SD rats; type: in vivo
Procedure: as §2, with “Drugs: lipopolysaccharide (LPS, SIGMA L-2880),” for “Medicines: yeast (OXOID LP0021),”, “BD-3;” for “BD-3; •”, “lipopolysaccharide” for “yeast”, “Method: the method of intraperitoneal injection of Lipopolysaccharide to replicate rat fever model.” for “Method:”
as §3
as §4, with “Intraperitoneal” for “Subcutaneous”, “lipopolysaccharide” for “dry yeast”, “lipopolysaccharide (20 μg/kg, 2” for “20% yeast suspension (10”, “intraperitoneally” for “subcutaneously”
as §5

[7] = aspirin 300 mg/kg oral, 20% yeast s.c., model group 37.7 ± 0.1
[8] = aspirin 300 mg/kg oral, LPS 20 μg/kg i.p., model group 37.8 ± 0.2

With `COc1ccc2c(c1)[C@]13CCCC[C@@H]1[C@H](C2)N(C)CC3` [Dextromethorphan, dextromethorphan hydrobromide, reference compound] the “Incubation period (cough)” value ([1]; Dextromethorphan 15 mg/kg oral, X ± SEM, solvent control 26.9 ± 2.3) was 38.4 ± 4.5 s, the Number of coughs ([1]; Dextromethorphan 15 mg/kg oral, within 2 minutes, X ± SEM, solvent control 67.1 ± 5.7) was 34.0 ± 2.9 and the “Cough incubation period and number of coughs vs solvent control (in words)” value ([1]; dextromethorphan 15 mg/kg, P<0.05) was “significant improvement in the incubation period and the number of coughs”.
For `CCOC(=O)Nc1ccc(NCc2ccc(F)cc2)cc1N` [Retigabine, reference compound], the mortality rate ([2]; PTZ 65 mg/kg i.p., model group 10%) was 0%, the “Grade IV seizure rate” value ([2]; PTZ 65 mg/kg i.p., model group 90%) was 20%** and the “Grade IV seizure incubation period” value ([2]; mean ± SEM, maximum recorded 900 seconds, model group 185 ± 84) was 745 ± 103 s. For the same compound, the “Grade III seizure incubation period” value ([2]; mean ± SEM, model group 63 ± 6) was 83 ± 7 s, the “Cases of Grade IV” value ([2]; of 10 mice, PTZ 65 mg/kg i.p., 15 min observation, model group 9) was 2** and the Cases of deaths ([2]; of 10 mice, PTZ 65 mg/kg i.p., model group 1) was 0.
With `CN1C(=O)CN=C(c2ccccc2)c2cc(Cl)ccc21` [Diazepam, reference compound] the mortality rate ([3]; PLO 225 mg/kg i.p., model group 0) was 0, the “Grade IV seizure rate” value ([3]; PLO 225 mg/kg i.p., model group 80%) was 0** % and the “Grade IV seizure incubation period” value ([3]; mean ± SEM, maximum recorded 1800 seconds, model group 894 ± 164) was 1800 ± 0 s. The “Grade II seizure incubation period” value ([3]; mean ± SEM, model group 86 ± 5) was 109 ± 8 s, the “Grade III seizure incubation period” value ([3]; mean ± SEM, model group 142 ± 6) was 182 ± 14 s and the “Cases of Grade IV” value ([3]; of 10 mice, PLO 225 mg/kg i.p., 30 min observation, model group 8) was 0**. The Cases of deaths ([3]; of 10 mice, PLO 225 mg/kg i.p., model group 0) was 0.
In the case of `CC(=O)Oc1ccccc1C(=O)O` [aspirin, reference compound], the “Writhing incubation period and times of writhing vs model group (in words)” value ([4]; Aspirin 300 mg/kg, P<0.05) is reported as “can significantly delay the incubation period of writhing and reduce the times of writhing”, the Writhing incubation period ([4]; aspirin 300 mg/kg oral, 0.6% acetic acid i.p., model group 204.2 ± 19.6) is reported as 290.3 ± 37.0 s and the Frequency of writhing ([4]; aspirin 300 mg/kg oral, within 15 minutes, model group 33.3 ± 2.5) is reported as 15.2 ± 2.9 times. The “Body temperature 2 hours after modeling” value ([5]; aspirin 300 mg/kg oral, 20% yeast s.c., model group 37.5 ± 0.1) was 37.0 ± 0.1 °C, the “Body temperature 8 hours after modeling” value ([5]; aspirin 300 mg/kg oral, 20% yeast s.c., model group 37.6 ± 0.1) was 37.0 ± 0.1 °C and the “Body temperature 4 hours after modeling” value [5, 7] was 37.0 ± 0.1 °C. For the same compound, the “Body temperature 6 hours after modeling” value [5, 7] was 37.0 ± 0.1 °C, the “Effect on body temperature of model rats (in words)” value ([5]; aspirin 300 mg/kg, at 4 hours, 6 hours, and 8 hours after modeling, P<0.05 vs model group) was “can effectively inhibit the increase in body temperature of model rats” and the “Body temperature 2 hours after modeling” value ([6]; aspirin 300 mg/kg oral, LPS 20 μg/kg i.p., model group 37.6 ± 0.1) was 36.8 ± 0.1 °C. For the same compound, the “Body temperature 4 hours after modeling” value ([6]; aspirin 300 mg/kg oral, LPS 20 μg/kg i.p., model group 37.8 ± 0.1) was 36.9 ± 0.2 °C, the “Body temperature 6 hours after modeling” value [6, 8] was 36.8 ± 0.2 °C and the “Body temperature 8 hours after modeling” value [6, 8] was 36.9 ± 0.1 °C. The “Effect on body temperature of model rats (in words)” value ([6]; aspirin 300 mg/kg, at 2, 4, 6 and 8 hours after modeling, P<0.05 vs model group) was “can effectively inhibit the increase in body temperature of model rats”.
